Results on 38 molecules are retold here after US20240092774A1, “HETEROAROMATIC COMPOUNDS AND USES THEREOF” (HUTCHISON MEDIPHARMA LIMITED, priority 2020, published 2024).

SMILES strings stand for the structures.

Test [1] concerns the target Recombinant human CSF1R kinase (Homo sapiens (Human), UniProt P07333). Kind of test: Measurement of CSF1R kinase activity at molecular level (Z-LYTE). It counts as biochemical. The settings on record: Z-LYTE Tyr 1 peptide. How it is done:
Invitrogen, PV3227; • Development reagent B: Invitrogen, PV3295; • Development buffer: Invitrogen. P3127; • Stopping solution: Invitrogen, P3094; • Recombinant human CSF1R kinase: Invitrogen, P[…]; • 384 well plate, black: Corning. 3575; • Envision: Perkin Elmer. 2. […] The test compound was diluted in gradient to 4-fold the reaction concentration and the concentration of DMSO was kept at 8%. […] The mixture was mixed gently with a pipette. • 4) A phosphorylated peptide substrate solution (PP solution): 0.4 μL of Z-LYTETM Tyr1 phosphorylated peptide substrate was added to 99.6 μl of 1.33× kinase buffer. • 5) ATP solution: 10 mM of ATP was diluted to 760 μM with 1.33× kinase buffer to prepare ATP solution. • 6) Development solution: Development reagent B was diluted with Development buffer at a ratio of 1:200. 3. […] 2.5 μL of 4× test compound was added to each reaction well of the 384 plate, and the corresponding volume of 8% DMSO was added to the control well. The plate was placed on ice. […] After adding the reaction components, the 384-well plate was sealed and incubated at 25-30° C. for 1 h in dark. 2) Development Reaction 5 μL of Development solution was added to each well, sealed and incubated at 25-30° C. for another 1 h in dark. 3) Reaction Stopping and Plate Reading 5 μL of stopping solution was added to each well. The Coumarin value (excitation at 400 nm, emission at 445 nm) and Fluorescein value (excitation at 400 nm, emission at 520 nm) were measured, respectively. 4. […] Coumarin emission read-out (445 nm)/Fluorescein emission read-out (520 nm); • C3 445 nm: 100% phosphorylated Coumarin emission read-out; • C3 520 nm: 100% phosphorylated Fluorescein emission read-out; • C1 445 nm: 0% phosphorylated Coumarin emission read-out; • C1 520 nm: 0% phosphorylated Fluorescein emission read-out. […] 5. IC50 values: calculated by using software XL-FitTM (version 5.3) supplied by ID Business Solutions (Guildford, UK), which is an additional software to Microsoft Excel.

For test [2], the target named is CSF1R phosphorylation in THP-1 cells (Homo sapiens (Human), UniProt P07333). Description: Detection of CSF1R phosphorylation activity at cell level (p-CSF1R ELISA, M-CSF stimulated THP-1 cells). The class given is cell-based. To be noted: THP-1 cells, M-CSF stimulation, p-CSF1R ELISA; read-out: IC50. How it is done:
THP-1 (ATCC), human acute monocytic leukemia cells.
3. Treatment of cells and preparation of lysis buffer
5 μL. of the diluted compound was added to the 50 μL cell culture system, the culture was cultured in a 5% CO2, 37° C. cell incubator for 60 min, 300 ng/mL of M-CSF was added to the cells, and the mixture was stimulated in the 37° C. cell incubator for 1 min, added 50 μL of cell lysis buffer, and stored in a refrigerator at −80° C.
100 μL/well of the p-CSF1R capture antibody diluted to 0.8 μg/mL with PBS was added to the ELISA plate, and the plate was coated on a shaker at room temperature overnight. The culture was washed with PBST, and then added blocking solution and incubated at room temperature for 2 h. The culture was washed with PBST, added 90 μL of cell lysis buffer, and incubated on a shaker at 25° C. for 2 h. The plate was washed with PBST three times, added 100 μL of anti-p-tyrosine-HRP detection antibody diluted with 0.1% PBS-BSA diluent, and incubated on a shaker at 25° C. for 2 h. The plate was washed with PBST washing liquid, added 100 μL of chromogenic substrate and incubated at room temperature for 10-20 min. The reaction was stopped by adding 50 μL of 2N H2SO4. The optical density signal (450/570 nm) of each well was detected in Labsystems Multiskan K3 or Envision.
wherein • Drug-treated well read-out: indicating the optical density signal of a cell well with the test compound treatment. • Background read-out: indicating the optical density signal of a well without cells but with cell lysis buffer. • Cell well read-out: indicating the optical density signal of a cell well not treated with the compound.
6. Calculation of IC50: obtained by using XL-Fit 5.3 software, […]

Sequence of CSF1R phosphorylation in THP-1 cells (P07333 20-972): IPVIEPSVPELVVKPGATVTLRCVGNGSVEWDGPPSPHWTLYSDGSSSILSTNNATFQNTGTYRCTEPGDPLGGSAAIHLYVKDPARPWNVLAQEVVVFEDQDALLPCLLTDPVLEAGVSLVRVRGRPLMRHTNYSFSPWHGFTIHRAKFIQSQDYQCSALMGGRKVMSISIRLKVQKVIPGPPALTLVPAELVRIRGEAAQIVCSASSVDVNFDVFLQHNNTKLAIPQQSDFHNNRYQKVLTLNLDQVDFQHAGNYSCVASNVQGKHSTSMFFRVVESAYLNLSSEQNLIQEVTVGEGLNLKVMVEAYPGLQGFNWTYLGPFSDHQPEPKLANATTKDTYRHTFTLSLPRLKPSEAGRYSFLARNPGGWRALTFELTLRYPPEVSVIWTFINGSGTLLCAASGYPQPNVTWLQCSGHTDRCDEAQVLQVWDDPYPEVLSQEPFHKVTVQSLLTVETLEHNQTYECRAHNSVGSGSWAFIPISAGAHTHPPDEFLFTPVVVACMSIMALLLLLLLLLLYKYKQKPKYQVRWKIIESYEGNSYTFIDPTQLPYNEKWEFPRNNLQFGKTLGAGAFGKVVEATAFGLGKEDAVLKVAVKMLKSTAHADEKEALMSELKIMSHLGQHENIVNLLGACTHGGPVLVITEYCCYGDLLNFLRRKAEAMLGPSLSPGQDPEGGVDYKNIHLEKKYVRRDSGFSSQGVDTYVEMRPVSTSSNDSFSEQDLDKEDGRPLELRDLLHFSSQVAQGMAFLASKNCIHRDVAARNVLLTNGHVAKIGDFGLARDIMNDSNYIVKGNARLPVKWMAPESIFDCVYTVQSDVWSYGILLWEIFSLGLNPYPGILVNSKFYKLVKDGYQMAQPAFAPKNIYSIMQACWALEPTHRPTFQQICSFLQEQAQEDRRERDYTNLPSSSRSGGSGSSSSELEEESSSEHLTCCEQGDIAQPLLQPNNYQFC
Sequence of Recombinant human CSF1R kinase (P07333 20-972): as above

As to `COc1cc(Oc2ccc3ncc(C)c(=O)n3c2)cnc1OCc1ccc(-n2cccn2)cc1` [Compound 23], the IC50 in test [1] worked out at 5 nM; in test [2], 129 nM.
As to `COc1cc(Oc2ccc3ncc(N)c(=O)n3c2)cnc1OCc1ccc(-n2cccn2)cc1` [Compound 24], the IC50 in test [1] turned out to be 3 nM; in test [2], 34 nM.
On to `COc1cc(Oc2ccc3nccc(=O)n3c2)cnc1OCc1ccc(C2CC2)cc1` [Compound 25], for which the IC50 stood at 8 nM in test [1] and 4 nM in test [2].
Consider `COc1cc(Oc2ccc3ncc(C)c(=O)n3c2)cnc1OCc1cccc(Cl)c1` [Compound 26], for which the results for the IC50 in test [1] and in test [2] were 6 nM and 108 nM, respectively.
In the same order, the values of `COc1cc(Oc2ccc3ncc(C)c(=O)n3c2)cnc1OCc1ccc(C(C)(C)O)cc1` [Compound 27] are 16 nM and 45 nM.
Regarding `COc1ccc(COc2ncc(Oc3ccc4ncc(C)c(=O)n4c3)cn2)cc1` [Compound 29], the figures for the IC50 in test [1] and in test [2] were 6 nM and 23 nM, respectively.
In the same order, the values of `COc1ccc(COc2ncc(Oc3ccc4ncc(N5CCOCC5)c(=O)n4c3)cc2OC)cc1` [Compound 31] are 6 nM and 10 nM.
For `COc1ccc(COc2ncc(Oc3ccc4ncc(N)c(=O)n4c3)cc2OC)cc1` [Compound 32] the same measures were 3 nM and 4 nM.
In the same order, the values of `COc1cc(Oc2ccc3ncc(N)c(=O)n3c2)cnc1OCc1ccc(C)cc1` [Compound 35] are 6 nM and 12 nM.
For `COc1cc(Oc2ccc3ncc(C4CC4)c(=O)n3c2)cnc1OCc1ccc(C)cc1` [Compound 36], the IC50 came to 21 nM in test [1] and 56 nM in test [2].
In the same order, the values of `COc1ccc(CCOc2ncc(Oc3ccc4ncc(C)c(=O)n4c3)cc2OC)cc1` [Compound 37] are 33 nM and 140 nM.
Regarding `COc1ccccc1CCOc1ncc(Oc2ccc3ncc(C)c(=O)n3c2)cc1OC` [Compound 38], the IC50 in test [1] amounted to 24 nM; in test [2] it was 381 nM.
In the same order, the values of `COc1cccc(CCOc2ncc(Oc3ccc4ncc(C)c(=O)n4c3)cc2OC)c1` [Compound 39] are 15 nM and 300 nM.
For `COc1cc(Oc2ccc3ncc(C)c(=O)n3c2)cnc1OCCc1ccccc1` [Compound 40], the IC50 in test [1] is 33 nM; in test [2] it was 190 nM.
For `Cc1cnc2ccc(Oc3cnc(OCc4ccc(Cl)cc4)nc3)cn2c1=O` [Compound 41] the same measures were 23 nM and 551 nM.
For `Cc1cnc2ccc(Oc3cnc(OCc4ccc(C5CC5)cc4)nc3)cn2c1=O` [Compound 42], the figures for the IC50 in test [1] and in test [2] were 13 nM and 78 nM, respectively.
For `COc1cc(Oc2ccc3ncc(C)c(=O)n3c2)cnc1OCc1ccccc1` [Compound 43] the same measures were 4 nM and 54 nM.
As for `COc1cc(Oc2ccc3ncc(C)c(=O)n3c2)cnc1OCc1ccc(C)cc1` [Compound 44], the IC50 in test [1] came to 4 nM; in test [2], 19 nM.
Take `Cc1cnc2ccc(Oc3cnc4c(c3)OCC(c3ccc(C5CC5)cc3)O4)cn2c1=O` (stereo not shown) [Compound 45, 7-((3-(4-cyclopropylphenyl)-2,3-dihydro-[1,4]dioxino[2,3-b]pyrin-7-yl)oxy)-3-methyl-4H-pyrido[1,2-a]pyrimidin-4-one]: the IC50 in test [1] is 36 nM; in test [2] it was 61 nM.
In the same order, the values of `COc1cc(Cc2ccnc(-c3cnn(C)c3)c2)cnc1OCc1ccc(C2CC2)cc1` [Compound 46, 2-((4-cyclopropylbenzyl)oxy)-3-methoxy-5-((2-(1-methyl-1H-pyrazol-4-yl)pyridin-4-yl)methyl)pyridine] are 28 nM and 5 nM.
For `COc1ccc(COc2ncc(Cc3ccc4ncc(C)c(=O)n4c3)cc2OC)cc1` [Compound 47, 7-((5-methoxy-6-((4-methoxybenzyl)oxy)pyridin-3-yl)methyl)-3-methyl-4H-pyrido[1,2-a]pyrimidin-4-one] the same measures were 13 nM and 12 nM.
For `OCCn1cc(-c2cc(Oc3cnc4c(c3)OCC(c3ccc(C5CC5)cc3)O4)ccn2)cn1` (stereo not shown) [Compound 52, 2-(4-(4-((3-(4-cyclopropylphenyl)-2,3-dihydro-[1,4]dioxino[2,3-b]pyridin-7-yl)oxy)pyridin-2-yl)-1H-pyrazol-1-yl)ethan-1-ol] the same measures were 19 nM and 34 nM.
Turning to `Cc1cnc2ccc(Oc3cnc4c(c3)OC[C@@H](c3ccc(C5CC5)cc3)O4)cn2c1=O` [Compound 57], the IC50 in test [1] came to 15 nM; in test [2] it was 16 nM.
As for `Cc1cnc2ccc(Oc3cnc4c(c3)OC[C@H](c3ccc(C5CC5)cc3)O4)cn2c1=O` [Compound 58], the IC50 in test [1] stood at 12 nM; in test [2], 26 nM.
For the molecule `O=c1ccnc2ccc(Oc3cnc4c(c3)OC[C@@H](c3ccc(C5CC5)nc3)O4)cn12` [Compound 59], the IC50 stood at 5 nM in test [1] and 50 nM in test [2].
As to `O=c1ccnc2ccc(Oc3cnc4c(c3)OC[C@H](c3ccc(C5CC5)nc3)O4)cn12` [Compound 60], the IC50 in test [1] stood at 6 nM; in test [2], 52 nM.
In the same order, the values of `Cc1cnc2ccc(Oc3cnc4c(c3)OC[C@@H](c3ccc(C5CC5)nc3)O4)cn2c1=O` [Compound 61] are 3 nM and 29 nM.
For `Cc1cnc2ccc(Oc3cnc4c(c3)OC[C@H](c3ccc(C5CC5)nc3)O4)cn2c1=O` [Compound 62] the same measures were 4 nM and 47 nM.
For the molecule `COc1ccc([C@@H]2COc3cc(Oc4ccc5nccc(=O)n5c4)cnc3O2)cc1` [Compound 63], the figures for the IC50 in test [1] and in test [2] were 5 nM and 18 nM, respectively.
For `COc1ccc([C@H]2COc3cc(Oc4ccc5nccc(=O)n5c4)cnc3O2)cc1` [Compound 64] the same measures were 10 nM and 42 nM.
For `COc1ccc([C@@H]2COc3cc(Oc4ccc5ncc(C)c(=O)n5c4)cnc3O2)cc1` [Compound 65] the same measures were 5 nM and 10 nM.
For `COc1ccc([C@H]2COc3cc(Oc4ccc5ncc(C)c(=O)n5c4)cnc3O2)cc1` [Compound 66] the same measures were 10 nM and 56 nM.
For the molecule `COc1ccc([C@@H]2COc3cc(Oc4ccnc(-c5cnn(C)c5)c4)cnc3O2)cc1` [Compound 67], the IC50 in test [1] is 5 nM; in test [2], 16 nM.
For `COc1ccc([C@H]2COc3cc(Oc4ccnc(-c5cnn(C)c5)c4)cnc3O2)cc1` [Compound 68] the same measures were 6 nM and 21 nM.
In the same order, the values of `COc1ccc([C@@H]2COc3cc(Oc4ccnc(-c5cnn(C)c5)c4)cnc3O2)cn1` [Compound 69] are 3 nM and 17 nM.
In the same order, the values of `COc1ccc([C@H]2COc3cc(Oc4ccnc(-c5cnn(C)c5)c4)cnc3O2)cn1` [Compound 70] are 8 nM and 15 nM.
Regarding `O=c1ccnc2ccc(Oc3cnc4c(c3)OC[C@H](c3ccc(C5CC5)cn3)O4)cn12` [Compound 71], the IC50 in test [1] stood at 30 nM; in test [2], 114 nM.
Consider `O=c1ccnc2ccc(Oc3cnc4c(c3)OC[C@@H](c3ccc(C5CC5)cn3)O4)cn12` [Compound 72], for which the IC50 in test [1] turned out to be 14 nM; in test [2] it was 32 nM.

One may read the IC50 as the concentration that gives 50% inhibition.
